Counter-ions that a name gives are not always drawn.

The record followed here is US20110105474A1, “HETEROCYCLIC DERIVATIVES AS HDAC INHIBITORS” (DAC S.r.l., priority 2008, published 2011).

Format in all cases: cell-based
The subject of one experiment is HCT-116 cells. Kind of experiment: Cell growth, CellTiter-Glo Luminescent Cell Viability Assay, HCT-116. The conditions noted are these: Homo sapiens, 72 h incubation, read-out: IC50 HCT116. Summed up: (§1)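 K562, A549 and HCT-116 cells in exponential growth exposed to inhibitors at varying concentrations for 72 h. Viability read as ATP luminescence (CellTiter-Glo, 10 min at RT after lysis); IC50 from dose-response, reported as ranges.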

The subject of another experiment is K562 cells. Kind of experiment: Cell growth, CellTiter-Glo Luminescent Cell Viability Assay, K562. The note with it: Homo sapiens, 72 h incubation. The method in brief: as §1
The subject of another experiment is A549 cells. The experiment can be described thus: Cell growth, CellTiter-Glo Luminescent Cell Viability Assay, A549. The note with it: Homo sapiens, 72 h incubation. The method in brief:
as §1
For orientation: ATP-based viability assays read luminescence as a measure of living cells.

For `O=C(/C=C/c1cccc(/C=C/C(=O)N2CC=C(c3ccccc3)CC2)c1)NO` [Example 75, (E)-N-Hydroxy-3-{3-[(E)-3-oxo-3-(4-phenyl-3,6-dihydro-2H-pyridin-1-yl)-propenyl]-phenyl}-acrylamide], the IC50 was at most 1 µM with HCT-116 cells, 1 to 3 µM in the experiment on K562 cells and 1 to 3 µM with A549 cells.

With `O=C(/C=C/c1cccc(/C=C/C(=O)N2CCN(c3ccc(Cl)cc3)CC2)c1)NO` [Example 76, (E)-3-(3-{(E)-3-[4-(4-Chloro-phenyl)-piperazin-1-yl]-3-oxo-propenyl}-phenyl)-N-hydroxy-acrylamide hydrochloride], the IC50 in the experiment with HCT-116 cells, in the experiment on K562 cells and in the experiment on A549 cells was at most 1 µM throughout.

Regarding `O=C(/C=C/c1cccc(/C=C/C(=O)N2CCC(C(=O)c3ccccc3)CC2)c1)NO` [Example 77, (E)-3-{3-[(E)-3-(4-Benzoyl-piperidin-1-yl)-3-oxo-propenyl]phenyl}-N-hydroxy-acrylamide], the IC50 was 1 to 3 µM in the experiment with HCT-116 cells, 1 to 3 µM in the experiment on K562 cells and at least 3 µM in the experiment with A549 cells.

As for `O=C(/C=C/c1cccc(/C=C/C(=O)N2CCC[C@H](c3ccccc3)C2)c1)NO` [Example 81, (E)-N-Hydroxy-3-{3-[(E)-3-oxo-3-((R)-3-phenyl-piperidin-1-yl)-propenyl]-phenyl}acrylamide], the IC50 with HCT-116 cells, in the experiment on K562 cells and with A549 cells was at least 3 µM in each case.

In the case of `O=C(/C=C/c1cccc(/C=C/C(=O)N2CCC[C@@H](c3ccccc3)C2)c1)NO` [Example 82, (E)-N-Hydroxy-3-{3-[(E)-3-oxo-3-((S)-3-phenyl-piperidin-1-yl)-propenyl]-phenyl}-acrylamide], the IC50 in the experiment on HCT-116 cells, in the experiment on K562 cells and in the experiment on A549 cells was at least 3 µM throughout.

For `O=C(/C=C/c1cccc(/C=C/C(=O)N2CCN(c3cccc(Cl)c3)CC2)c1)NO` [Example 85, (E)-3-(3-{(E)-3-[4-(3-Chloro-phenyl)-piperazin-1-yl]-3-oxo-propenyl}-phenyl)-N-hydroxy-acrylamide hydrochloride], the half-maximal inhibitory concentration (IC50) is 1 to 3 µM in the experiment on HCT-116 cells, 1 to 3 µM with K562 cells and at least 3 µM with A549 cells.

Take `O=C(/C=C/c1cccc(/C=C/C(=O)N2CCC(Cc3ccccc3)CC2)c1)NO` [Example 86, (E)-3-{3-[(E)-3-(4-Benzyl-piperidin-1-yl)-3-oxo-propenyl]-phenyl}-N-hydroxy-acrylamide]: the IC50 in the experiment with HCT-116 cells, in the experiment with K562 cells and with A549 cells was at least 3 µM throughout.

For `O=C(/C=C/c1cccc(/C=C/C(=O)N2CCN(c3ccccc3Cl)CC2)c1)NO` [Example 87, (E)-3-(3-{(E)-3-[4-(2-Chloro-phenyl)-piperazin-1-yl]-3-oxo-propenyl}-phenyl)-N-hydroxy-acrylamide hydrochloride], the IC50 was 1 to 3 µM in the experiment on HCT-116 cells, 1 to 3 µM with K562 cells and at least 3 µM with A549 cells.

With `N#Cc1ccc(N2CCN(C(=O)/C=C/c3cccc(/C=C/C(=O)NO)c3)CC2)cc1` [Example 88, (E)-3-(3-{(E)-3-[4-(4-Cyano-phenyl)-piperazin-1-yl]-3-oxo-propenyl}-phenyl)-N-hydroxy-acrylamide hydrochloride], the IC50 with HCT-116 cells was at most 1 µM; in the experiment on K562 cells it was at most 1 µM; with A549 cells it was 1 to 3 µM.

As for `O=C(/C=C/c1cccc(/C=C/C(=O)N2CCC=C(c3ccccc3)C2)c1)NO` [Example 89, (E)-N-Hydroxy-3-{3-[(E)-3-oxo-3-(5-phenyl-3,6-dihydro-2H-pyridin-1-yl)-propenyl]-phenyl}-acrylamide], the IC50 with HCT-116 cells, in the experiment on K562 cells and with A549 cells was at least 3 µM in each case.

As for `O=C(/C=C/c1cccc(/C=C/C(=O)N2CCNC(c3ccccc3)C2)c1)NO` (stereo not drawn) [Example 90, (E)-N-Hydroxy-3-{3-[(E)-3-oxo-3-(3-phenyl-piperazin-1-yl)-propenyl]phenyl}-acrylamide hydrochloride], the IC50 with HCT-116 cells was 1 to 3 µM; in the experiment on K562 cells, 1 to 3 µM; in the experiment on A549 cells, at least 3 µM.

In the case of `O=C(/C=C/c1cccc(/C=C/C(=O)N2CCN(c3ccc(C(F)(F)F)cc3)CC2)c1)NO` [Example 91, (E)-N-Hydroxy-3-(3-{(E)-3-oxo-3-[4-(4-trifluoromethyl-phenyl)-piperazin-1-yl]-propenyl}-phenyl)-acrylamide hydrochloride], the IC50 in the experiment with HCT-116 cells, in the experiment with K562 cells and in the experiment on A549 cells was 1 to 3 µM each time.

Turning to `O=C(/C=C/c1cccc(/C=C/C(=O)N2CCCC(c3ccccc3F)C2)n1)NO` (stereo not drawn) [Example 92, (E)-3-(6-{(E)-3-[3-(2-Fluoro-phenyl)-piperidin-1-yl]-3-oxo-propenyl}-pyridin-2-yl)-N-hydroxy-acrylamide hydrochloride], the IC50 in the experiment on HCT-116 cells, in the experiment on K562 cells and with A549 cells was at most 1 µM in each case.

`O=C(/C=C/c1cccc(/C=C/C(=O)N2CCCC(c3cccc(F)c3)C2)n1)NO` (stereo not drawn) [Example 93, (E)-3-(6-{(E)-3-[3-(3-Fluoro-phenyl)-piperidin-1-yl]-3-oxo-propenyl}-pyridin-2-yl)-N-hydroxy-acrylamide hydrochloride]: the concentration for half-maximal inhibition (IC50) in the experiment with HCT-116 cells, in the experiment with K562 cells and in the experiment with A549 cells was at most 1 µM in each case.

For the compound `O=C(/C=C/c1cccc(/C=C/C(=O)N2CCCC(c3nc(-c4ccc(F)cc4)no3)C2)n1)NO` (stereo not drawn) [Example 94, (E)-3-[6-((E)-3-{3-[3-(4-Fluoro-phenyl)-[1,2,4]oxadiazol-5-yl]-piperidin-1-yl}-3-oxo-propenyl)-pyridin-2-yl]-N-hydroxy-acrylamide hydrochloride], the IC50 in the experiment with HCT-116 cells was at most 1 µM; in the experiment with K562 cells, at most 1 µM; with A549 cells, 1 to 3 µM.

As for `O=C(/C=C/c1cccc(/C=C/C(=O)N2CCC=C(c3ccccc3)C2)n1)NO` [Example 95, (E)-N-Hydroxy-3-{6-[(E)-3-oxo-3-(5-phenyl-3,6-dihydro-2H-pyridin-1-yl)-propenyl]-pyridin-2-yl}-acrylamide hydrochloride], the IC50 in the experiment on HCT-116 cells, with K562 cells and in the experiment on A549 cells was at most 1 µM each time.

In the case of `O=C(/C=C/c1cccc(/C=C/C(=O)N2CCc3cc(-c4ccccc4)ccc3C2)n1)NO` [Example 96, (E)-N-Hydroxy-3-{6-[(E)-3-oxo-3-(6-phenyl-3,4-dihydro-1H-isoquinolin-2-yl)-propenyl]-pyridin-2-yl}-acrylamide hydrochloride], the IC50 in the experiment with HCT-116 cells was 1 to 3 µM; with K562 cells, 1 to 3 µM; in the experiment on A549 cells, at least 3 µM.

Turning to `O=C(/C=C/c1cccc(/C=C/C(=O)N2CCc3nc(-c4ccccc4)sc3C2)n1)NO` [Example 97, (E)-N-Hydroxy-3-{6-[(E)-3-oxo-3-(2-phenyl-6,7-dihydro-4H-thiazolo[5,4-c]pyridin-5-yl)-propenyl]-pyridin-2-yl}-acrylamide hydrochloride], the results for the IC50 in the experiment on HCT-116 cells, with K562 cells and with A549 cells were at most 1 µM, at most 1 µM and 1 to 3 µM, respectively.

For `O=C(/C=C/c1cccc(/C=C/C(=O)N2CCCc3nc(-c4ccccc4)sc32)n1)NO` [Example 98, (E)-N-Hydroxy-3-{6-[(E)-3-oxo-3-(2-phenyl-6,7-dihydro-5H-thiazolo[5,4-b]pyridin-4-A-propenyl]-pyridin-2-yl}-acrylamide trifluoroacetate], the IC50 with HCT-116 cells is at most 1 µM; with K562 cells it was 1 to 3 µM; with A549 cells, 1 to 3 µM.

By IC50 is commonly meant the point on the concentration scale where inhibition reaches its midpoint.
